Measured values reported in patent publication US20240091203A1, “METHODS FOR TREATING NON-OBSTRUCTIVE HYPERTROPHIC CARDIOMYOPATHY” (Cytokinetics, Incorporated, priority 2022, published 2024).
“And” between values parts separate entries of the source, which are not always exact repeats. Equal entries are not always repeated. “Also recorded” adds a separate entry of the source.

Columns and labels:
Type in all cases: in vivo, human
[1] = test system: healthy adults; test: Phase 1 pharmacodynamics by echocardiography (LVEF and other parameters, PK/PD)
Description: Echocardiography. For PD assessments of LVEF, echocardiograms for the SAD and MAD cohorts were interpreted by the echocardiography core laboratory and used for all data analysis and dose level review decisions while immediate local interpretation of the echocardiograms was performed for safety monitoring. […] Echocardiograms on day 3 (48 h after dosing) were obtained only if the 24 h LVEF had not returned to near or above baseline, as determined by the investigator. In the MAD cohorts, echocardiograms were obtained on day −1, pre-dose on day 1, and at 1.5 h post dose on days 2, 4, and 9, and at 1.5, 24, and 72 h post dose on day 14 (for the 5-mg and 10-mg cohorts) or on day 17 (for the 7.5-mg cohort). Echocardiograms were obtained 3 days after the last dose (on day 17 or 20) only if the participant's prior LVEF was not near or above baseline, as determined by the investigator.
All participants who received ≥1 dose of study drug and had ≥1 pre-dose and ≥1 post-dose echocardiographic measurement were included in the PD analysis set. […] Descriptive statistics of the echocardiographic parameters were generated using SAS® Version 9.3 or higher.
Dose-response analysis was performed using analysis of covariance (ANCOVA) to identify the least-squares mean difference (aficamten minus placebo). To analyze the impact of drug dose on echocardiographic parameters in the SAD and MAD cohorts, an inferential analysis was conducted on the PD analysis set using linear mixed models for repeated-measures analysis of covariance (ANCOVA). The ANCOVA used baseline value as a covariate, included treatment, time-point, and time-point-by-treatment interaction as fixed effects, and change from baseline as the dependent variable. The unstructured variance-covariance structure was used, and the model accounted for the time-point repeated measures. The ANCOVA analysis was conducted separately for each study part and for each PD parameter. The least-squares means, the difference in least squares means (active minus placebo), and the associated 2-sided 95% CIs were presented for each comparison.
Analyses of concentration ‘bin’ and exposure-response were also performed using ANCOVA. SAS® PROC MIXED was used for all comparative analyses. […] A concentration bin ANCOVA was conducted using linear mixed models for repeated-measures analyses with concentration bin group as a fixed effect, baseline PD parameters as a covariate, change from baseline as the dependent variable, and a random intercept to adjust for the repeated measures. The unstructured variance-covariance structure was used. […] The ANCOVA compared the change in PD parameters between each bin versus the pooled placebo group.
The least-squares means, the difference in least squares means (bin group minus placebo), and the associated 2-sided 95% CIs were presented for each comparison. The ANCOVA analysis was conducted separately for each study part. For all time-points at which both PK data and PD measures were available, the time-points were pooled for the analysis. […] From least to greatest, the data were then divided into 5 groups of observations (‘bins’), each consisting of 20% of the data points. Each bin was treated as a separate group.
The above analysis was then repeated using concentration as a continuous variable to estimate the exposure-response trend. Both a random intercept effect and a random concentration effect were added to the ANCOVA. The estimate of the concentration slope, with corresponding 2-sided 95% CIs, and the ANCOVA analyses were presented for each study part.
For all time-points at which both PK data and PD measures were available, the time points were pooled for the analysis. A nominal significance level of 5% was used for statistical comparisons, without adjustment for multiplicity.

[2] = test system: patients with symptomatic non-obstructive HCM (nHCM) or HCM with MVO; test: Phase 2 trial (Example 2): echocardiography (LVEF, diastolic function)
Description: (§1) Echocardiograms obtained on day 1 of treatment, at weeks 2, 4, 6, and 10 of treatment, and two weeks after the last dose were analyzed for several key structural and physiologic metrics; measurements of N-terminal prohormone of brain natriuretic peptide (NT-proBNP), and cardiac troponin I were also monitored. Ambulatory cardiac monitoring was conducted one week before day 1 of treatment and at week 9.
The secondary PD endpoints of the study were: Slope of the relationship of the plasma concentration of CK-3773274 to the change from baseline in the resting LVEF.
Echocardiography parameters were evaluated by the core laboratory at baseline and during treatment at the Weeks 2, 4, 6, and 10 and after a 2-week washout at Week 12 (follow-up visit).
(§2) The exploratory PD endpoints included but were not limited to: (i) The relationship of plasma concentration ranges of CK-3773274 to LVEF, LVFS, global longitudinal strain (GLS); (ii) Observed values and change from baseline in the echocardiography parameters described in Table 13 and evaluated by the core laboratory during treatment at Weeks 2, 4, 6, 10, and 12; (iii) Change in NT-proBNP from baseline to Week 10; (iv) Change in hs-cTnI from baseline to Week 10; (v) Proportion of patients with LVEF ≥50% and ≥50% reduction from baseline NT-proBNP.

[3] = test system: patients with symptomatic non-obstructive HCM (nHCM) or HCM with MVO; test: Phase 2 trial (Example 2): cardiac biomarkers NT-proBNP and hs-cTnI
Description: as §1, §2
For select PD measurements with statistical distributions likely to depart from normal, proportional change from baseline was evaluated.

[4] = test system: patients with symptomatic non-obstructive HCM (nHCM) or HCM with MVO; test: Phase 2 trial (Example 2): NYHA Functional Classification
Description: Other exploratory endpoints included: (i) Change in NYHA Functional Classification from baseline to Week 10; and (ii) For patients with baseline NYHA Class III disease, percentage with improvement to NYHA Class I or II disease at Week 10.

[5] = SAD 50 mg (n = 11), change from baseline at […], mean
[6] = end of treatment (week 10), second interim

CCc1nc(-c2ccc3c(c2)CC[C@H]3NC(=O)c2cnn(C)c2)no1 [aficamten, (R)—N-(5-(5-ethyl-1,2,4-oxadiazol-3-yl)-2,3-dihydro-1H-inden-1-yl)-1-methyl-1H-pyrazole-4-carboxamide] was tested, and the “relationship of LVEF to plasma concentration of aficamten” value ([1]; MAD cohorts, bin concentration or linear regression analysis) was “did not reach statistical significance”, the “suppression of LVEF versus plasma concentration” value ([1]; MAD cohorts, plasma aficamten concentrations of ≤180 ng/ml) was “minimal suppression of LVEF” and the “participants with decreases in LVEF to <50%” value ([1]; Phase 1, rapidly reversible upon study drug discontinuation) was “Three participants”. For the same compound, the “E (peak E wave velocity)” value ([1]; SAD 50 mg (n = 11), […], mean) was 64 cm/s, the “A (peak A wave velocity), CFB” value [1, 5] was 2.5 cm/s and the “E (peak E wave velocity), CFB” value [1, 5] was -2.7 cm/s. The “Heart rate, CFB” value [1, 5] was 0.5 bpm, the “IVCT, CFB” value [1, 5] was 0.4 ms and the “IVRT, CFB” value [1, 5] was 0.5 ms. The “LAV, CFB” value [1, 5] was 0 mL, the “LV EDV, CFB” value [1, 5] was 6.6 mL and the “LV ESV, CFB” value [1, 5] was 8.1 mL. For the same compound, the “LV ET, CFB” value [1, 5] was 1.9 ms, the “LV SV, CFB” value [1, 5] was -6.2 mL and the “LVEF, CFB” value [1, 5] was −5.8%. For the same compound, the “e′ lateral, CFB” value [1, 5] was -1.3 cm/s, the “time after dosing at which LVEF <50% was noted” value ([1]; SAD 50 mg and 75 mg, 3 participants) was “approximately 1.5 h” and the “participants with absolute reduction in LVEF of ≥5% from baseline” value ([1]; SAD 1-mg cohort) was “no participants”. The “participants with absolute reduction in LVEF of ≥5% from baseline” value ([1]; SAD 10-mg cohort) was “no participants”, the “participants with absolute reduction in LVEF of ≥5% from baseline” value ([1]; SAD 25-mg cohort) was “no participants” and the “participants with reduction in LVEF to <50%” value ([1]; SAD 50-mg cohort, 2 of 11, core laboratory) was 18%. For the same compound, the “reduction in LVEF from baseline, least-squares mean difference” value ([1]; SAD 50-mg cohort, […] post dose, p=0.0001) was 5.5%, the “LVEF of the 2 participants with LVEF <50%” value ([1]; SAD 50-mg cohort, per core laboratory assessment) was 48.2% and 45.5% and the “participants with reduction in LVEF to <50%” value ([1]; SAD 75-mg cohort, 1 of 1) was 100%. For the same compound, the “participants with LVEF <45%” value ([1]; SAD cohorts, core laboratory) was “Only the participant in the 75-mg cohort”, the “relationship of LVEF to plasma concentration of aficamten” value ([1]; SAD cohorts, highest bin 122 to 524 ng/ml p<0.0001, concentration-slope p=0.0027) was “statistically significant decrease in LVEF; also recorded: trend toward a decrease in LVEF” and the “reduction in LVEF to <50%” value ([1]; any of the MAD cohorts, core laboratory) was “not observed”. For the same compound, the “time for reversal of decreases in LVEF to values <50%” value ([1]; following single doses) was at most 6 h, the “time for LVEF to return to baseline” value ([1]; participants whose LVEF fell below 50%) was at most 24 h and the LVEF after reduction ([1]; single dose of 75 mg, 1 participant) was 34.1%. For the same compound, the “reduction in LVEF” value ([1]; single participant, SAD 75 mg, […] post dose) was 31.5%, the “Doppler measures of diastolic function (lateral e′; lateral E/e′; septal E/e′)” value ([2]; baseline to week 10, second interim) was “generally improved” and the “change in LVEF from baseline to Week 10” value ([2]; second interim, N = 41) was −5.5%. The “symptoms, NT-proBNP and hs-Troponin I in patients with mid-ventricular obstruction (MVO)” value ([3]; 7 patients with MVO, second interim) was “All patients in this subgroup showed symptom improvement and reduction in both NT-proBNP and hs-Troponin I levels”, the “cardiac biomarkers (NT-proBNP, hs-cTnI) after washout” value ([3]; after the 2-week washout) was “rebounded upwards off drug” and the “reduction of NT-proBNP (geometric mean, proportional change from baseline)” value ([3]; end of treatment (week 10), interim, p<0.0001) was 56%. For the same compound, the “reduction of hs-cTnI (proportional to baseline)” value ([3]; end of treatment (week 10), interim, p<0.05) was 21%, the mean (SE) reduction of NT-proBNP [3, 6] was -870 pg/mL and the “mean (SE) reduction of hs-cTnI” value [3, 6] was -24.8 ng/L. For the same compound, the “reduction of NT-proBNP” value ([3]; end of treatment (week 10), second interim, p<0.0001) was 55%, the “reduction of hs-cTnI” value ([3]; end of treatment (week 10), second interim, p<0.05) was 21% and the “patients with a change of ≥1 NYHA Class” value ([4]; 22 of 41 patients, interim) was 54%. For the same compound, the “patients with functional improvement of ≥1 NYHA class” value ([4]; Week 10, second interim, p=0.011 vs assumed 37% placebo effect) was 56%, the “patients achieving NYHA Class 1 (asymptomatic)” value ([4]; by Week 10, second interim) was 28% and the “patients who improved from NYHA Class II to I” value ([4]; interim) was 8 patients. For the same compound, the “patients who improved from NYHA Class III to I” value ([4]; interim) was 4 patients and the “patients who improved from NYHA Class III to II” value ([4]; interim) was 12 patients.
